Test results as given in US8143216B2, “Modified human growth hormone” (Ambrx, Inc., priority 2004, dated 2012).
One block for each molecule: values may come before it.

What was measured:
[1] = tested on: rat model of growth hormone deficiency (hypophysectomized rats); assay: Efficacy studies of PEGylated hGH in a rat model of growth hormone deficiency (Example 34); format: in vivo
Method: Preclinical efficacy studies were conducted in a rat model of growth hormone deficiency. In this model, the pituitary gland was surgically removed at approximately 4 weeks of age. The body weights of these hypophysectomized rats were monitored after surgery and animals showing less than 7.5 grams of bodyweight gain over a period of 7 days before the study were deemed successfully hypophysectomized and were randomized amongst the treatment groups. Animals showing more than 2.5 g of weight-loss were deemed not healthy and were excluded from the study. The study was initiated approximately 3 weeks after the surgery.
Animals were dosed weekly (i.e. dosed on days 0 and 7) with either placebo or increasing PEG-^ahGH dose. An additional treatment group received Genotropin or placebo daily. Bodyweights and blood were collected predose and daily. All animals were sacrificed on day 14.
For this parameter, the AUC is expressed as AUC above the efficacious IGF-1 plasma level. […] In the current study, the baseline IGF-1 level determined from the placebo group throughout the study was 128 ng/mL. An increase of 34 ng/mL over 128 ng/mL estimates an efficacious IGF-1 level of 162 ng/mL. Thus the AUC above 162 ng/mL was integrated. From this analysis, a dose-dependent increase in AUC above efficacious level was observed after each dose interval.
The duration of IGF-1 levels induced above the estimated efficacious level after the first dose was determined. At the higher doses, the IGF-1 levels had not returned to baseline before the second dose. In these instances, the IGF-1 concentration was extrapolated to the efficacious level using the calculated terminal slopes. From this evaluation, a dose-dependent increase in duration of IGF-1 concentration above the efficacious level was evident.
Bone growth was used as an additional pharmacodynamic measure to calculate the PEG-^ahGH ED50. Tibias were collected from each animal at the end of the study and immersion fixed in 10% neutral-buffered formalin followed by radiography. There was a clear dose-dependent increase in tibial bone length for the PEG-^ahGH treated animals. Moreover, there was a dose sparing effect compared to the daily Genotropin treated animals. The amount of Genotropin administered over a 7-day interval is equivalent to 2.1 mg/kg of PEG-^ahGH given weekly (i.e., days 0 and 7). An induction of tibial bone length increase similar to Genotropin is shown for PEG-^ahGH at 0.42 to 1.0 mg/kg. This represents a ≧50% dose-sparing effect for PEG-^ahGH when compared to Genotropin.

[2] = Rat pharmacokinetics: PEG-ahGH plasma concentration in the rat disease model; format: in vivo
Method: The same plasma samples collected for IGF-1 concentration determination were also assayed for PEG-^ahGH concentration. […] The duration of PEG-^ahGH persistence in the circulation, as well as the overall PEG-^ahGH AUC, increased in a dose-dependent manner. […] The PEG-^ahGH exposure results support the dose-dependent efficacy shown above.
Plasma concentration versus time profiles for PEG-^ahGH administered subcutaneously at various doses in the rat disease model are shown in Example 34, above.

[3] = target: T1, human growth hormone receptor on IM-9 cells (Homo sapiens, UniProt P10912); assay: IM-9 pSTAT5 bioassay (STAT5 phosphorylation in IM-9 cells); format: cell-based; settings: IM-9 cells
T1 construct: host or cells: human IM-9 lymphocyte cell line
T1 sequence (P10912 19-638): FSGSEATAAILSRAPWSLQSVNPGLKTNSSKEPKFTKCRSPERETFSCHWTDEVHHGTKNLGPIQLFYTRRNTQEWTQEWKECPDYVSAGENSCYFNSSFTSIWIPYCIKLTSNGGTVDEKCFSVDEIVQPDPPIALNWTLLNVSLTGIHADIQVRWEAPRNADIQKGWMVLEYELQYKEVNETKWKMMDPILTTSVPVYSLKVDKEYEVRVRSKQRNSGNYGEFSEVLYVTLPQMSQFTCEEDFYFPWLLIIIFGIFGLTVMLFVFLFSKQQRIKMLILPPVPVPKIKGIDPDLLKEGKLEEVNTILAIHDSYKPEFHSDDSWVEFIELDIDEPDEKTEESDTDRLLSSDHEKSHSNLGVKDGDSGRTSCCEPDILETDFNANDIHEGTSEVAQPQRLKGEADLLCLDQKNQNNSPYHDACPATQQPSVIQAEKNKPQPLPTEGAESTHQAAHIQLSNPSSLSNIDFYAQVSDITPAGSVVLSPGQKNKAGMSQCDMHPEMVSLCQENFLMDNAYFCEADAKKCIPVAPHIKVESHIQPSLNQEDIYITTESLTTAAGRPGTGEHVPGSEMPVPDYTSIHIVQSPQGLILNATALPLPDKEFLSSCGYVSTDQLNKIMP
Text: To further assess the biological activity of modified hGH polypeptides, an assay measuring a downstream marker of hGH's interaction with its receptor was used. The interaction of hGH with its endogenously produced receptor leads to the tyrosine phosphorylation of a signal transducer and activator of transcription family member, STAT5, in the human IM-9 lymphocyte cell line. Two forms of STAT5, STAT5A and STAT5B were identified from an IM-9 cDNA library. See, e.g., Silva et al., Mol. Endocrinol. (1996) 10(5):508-518.
IM-9 cells were stimulated with hGH polypeptides of the present invention. The human IM-9 lymphocytes were purchased from ATCC (Manassas, Va.) and grown in RPMI 1640 supplemented with sodium pyruvate, penicillin, streptomycin (Invitrogen, Carlsbad, San Diego) and 10% heat inactivated fetal calf serum (Hyclone, Logan, Utah). The IM-9 cells were starved overnight in assay media (phenol-red free RPMI, 10 mM Hepes, 1% heat inactivated charcoal/dextran treated FBS, sodium pyruvate, penicillin and streptomycin) before stimulation with a 12-point dose range of hGH polypeptides for 10 min at 37° C. Stimulated cells were fixed with 1% formaldehyde before permeabilization with 90% ice-cold methanol for 1 hour on ice. The level of STAT5 phosphorylation was detected by intra-cellular staining with a primary phospho-STAT5 antibody (Cell Signaling Technology, Beverly, Mass.) at room temperature for 30 min followed by a PE-conjugated secondary antibody. Sample acquisition was performed on the FACS Array with acquired data analyzed on the Flowjo software (Tree Star Inc., Ashland, Oreg.). EC50 values were derived from dose response curves plotted with mean fluorescent intensity (MFI) against protein concentration utilizing SigmaPlot.
The interaction of hGH with its receptor leads to the tyrosine phosphorylation of a signal transducer and activator of transcription family member, STAT5, in the human IM-9 lymphocyte cell line.

rat GHR ECD (L43R) = target: T2, rat GHR ECD (L43R) (Rattus norvegicus, UniProt P16310, L61R); assay: Biacore analysis of binding of GH to GHR; settings: rat GHR ECD (L43R) immobilized on a CM5 chip, bivalent analyte model
T2 construct: (GHR ECD, amino acids S29-T238) was cloned into pET20b vector; made in house
T2 sequence (P16310 47-256 L61R): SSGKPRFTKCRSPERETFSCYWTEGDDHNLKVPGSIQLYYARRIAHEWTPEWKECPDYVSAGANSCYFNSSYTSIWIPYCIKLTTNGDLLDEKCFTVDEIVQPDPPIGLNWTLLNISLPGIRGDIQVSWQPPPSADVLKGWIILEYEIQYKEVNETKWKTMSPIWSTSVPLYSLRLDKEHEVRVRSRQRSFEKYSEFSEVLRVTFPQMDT
Method: Cloning and purification of rat GH receptor The extracellular domain of rat GH receptor (GHR ECD, amino acids S29-T238) was cloned into pET20b vector (Novagen) between Nde I and Hind III sites in frame with C-terminal 6H is tag. A mutation of L43 to R was introduced to further approximate the human GH receptor binding site (Souza et al., Proc Natl Acad Sci USA. (1995) 92(4): 959-63). Recombinant protein was produced in BL21 (DE3) E. coli cells (Novagen) by induction with 0.4 mM IPTG at 30° C. for 4-5 hours. After lysing the cells, the pellet was washed four times by resuspending in a dounce with 30 mL of 50 mM Tris, pH 7.6, 100 mM NaCl, 1 mM EDTA, 1% Triton X-100, and twice with the same buffer without Triton X-100. […] Refolding was accomplished by means of passing an aliquot of the inclusion body solution through a S100 (Sigma) gel filtration column, equilibrated with 50 mM Tris, pH 7.8, 1 M L-arginine, 3.7 mM cystamine, 6.5 mM cysteamine. Fractions containing soluble protein were combined and dialyzed against 50 mM Tris, pH 7.6, 200 mM NaCl, 10% glycerol. The sample was briefly centrifuged to remove any precipitate and incubated with an aliquot of Talon resin (Clontech), according to manufacturer's instructions. After washing the resin with 20 volumes of dialysis buffer supplemented with 5 mM imidazole, protein was eluted with 120 mM imidazole in dialysis buffer. Finally, the sample was dialyzed overnight against 50 mM Tris, pH 7.6, 30 mM NaCl, 1 mM EDTA, 10% glycerol, centrifuged briefly to remove any precipitate, adjusted to 20% glycerol final concentration, aliquoted and stored at −80 C. Concentration of the protein was measured by OD(280) using calculated extinction coefficient of ε=65,700 M^−1*cm^−1.
Approximately 600-800 RUs of soluble GHR ECD was immobilized on a Biacore™ CM5 chip, using a standard amine-coupling procedure, as recommended by the manufacturer. […] See, e.g., Cunningham et al. J Mol. Biol. (1993) 234(3): 554-63 and Wells J A. Proc Natl Acad Sci USA (1996) 93(1): 1-6).
Various concentrations of wild type or mutant GH (0.1-300 nM) in HBS-EP buffer (Biacore™, Pharmacia) were injected over the GHR surface at a flow rate of 40 μl/min for 4-5 minutes, and dissociation was monitored for 15 minutes post-injection. The surface was regenerated by a 15 second pulse of 4.5M MgCl2. […] Reference cell with no receptor immobilized was used to subtract any buffer bulk effects and non-specific binding.
Kinetic binding data obtained from GH titration experiments was processed with BiaEvaluation 4.1 software (BIACORE™). […] Equilibrium dissociation constants (Kd) were calculated as ratios of individual rate constants (koff/kon).

[4] = On day 14, after 2 weekly s.c. doses
[5] = after the first dose, curve fitting
[6] = curve fitting of the AUC values from the first dose
[7] = curve fitting of the Cmax values from the first dose

Molecule: Genotropin: commercial preparation of hGH, Genotropin™ (Pfizer) [reference compound]
bodyweight change on day 14 from day 0 ([1]; daily treatment at 0.3 mg/kg/day): 27.74 (+/−7.92) %

Molecule: PEG-^ahGH: PEGylated hGH of SEQ ID NO:2, para-acetylphenylalanine at position 35 linked via an oxime bond to a linear 30 kDa PEG
bodyweight change on day 14 ([1]; 1.0 mg/kg on days 0 and 7): 27.02 (+/−3.97) %
bodyweight change on day 14 from day 0 ([1]; 2.1 mg/kg on days 0 and 7): 33.66 (+/−7.55) %
ED50, Duration of IGF-1 Above Efficacious Level ([1]; After single s.c. dose): 0.173 mg/kg
ED50, IGF-1 AUC Above Efficacious Level ([1]; After single s.c. dose): 0.909 mg/kg
ED50, IGF-1 Induction: IGF-1 Cmax ([1]; After single s.c. dose): 0.136 mg/kg
Range of Effect (Eo-Emax), Duration of IGF-1 Above Efficacious Level ([1]; After single s.c. dose): 0 to 8.84 days
Range of Effect (Eo-Emax), IGF-1 AUC Above Efficacious Level ([1]; After single s.c. dose, AUC above 162 ng/mL): 0-5,029.8 ng × hr/mL
ED50, Tibial Bone Length [1, 4]: 0.424 mg/kg
Range of Effect (Eo-Emax), Percent Bodyweight Change [1, 4]: 7.17-50.65%
Range of Effect (Eo-Emax), Tibial Bone Length [1, 4]: 30.52-33.67 mm
dose-sparing effect over Genotropin (percent bodyweight change) ([1]; PEG-ahGH 1.0 mg/kg on days 0 and 7 vs Genotropin 0.3 mg/kg/day): ~50%
dose-sparing effect when compared to Genotropin (tibial bone length) ([1]; PEG-ahGH 0.42 to 1.0 mg/kg weekly vs daily Genotropin equivalent to 2.1 mg/kg weekly): ≥ 50%
maximum duration of IGF-1 concentration above the efficacious level [1, 5]: 8.84 days
minimum duration of IGF-1 concentration above the efficacious level [1, 5]: 0 days
Emax IGF-1 AUC above efficacious level [1, 6]: 5,029.8 ng×hr/mL
Eo IGF-1 AUC above efficacious level [1, 6]: 0 ng·h/mL
maximum (Emax) IGF-1 Cmax [1, 7]: 1,136.2 ng/mL
minimum (Eo) IGF-1 Cmax [1, 7]: 136.7 ng/mL
maximum percent bodyweight change ([1]; day 14, curve fitting): 50.65%
minimum percent bodyweight change ([1]; day 14, curve fitting): 7.17%
plasma IGF-1 levels throughout the study ([1]; dosed weekly (days 0 and 7) with increasing dose, FIG. 28): robust, dose-dependent increase in IGF-1
plasma concentration (hGH ELISA) ([2]; hypophysectomized rats, PEG-ahGH s.c. on days 0 and 7, Genotropin daily): dose-dependent increase in PEG-^ahGH Cmax
apparent terminal half-life ([2]; in rat, subcutaneous): 7.05 (+/−0.47) hours

Molecule: unPEGylated GH: unPEGylated GH administered weekly at 2.1 mg/kg in hypophysectomized rats [reference compound]
body weight gain ([1]; weekly at 2.1 mg/kg dose): failed to induce body weight gain

kon (rat GHR ECD (L43R)): 33000 M⁻¹ s⁻¹
B1: rat GH WT: wild type rat growth hormone (protein)
chain: FPAMPLSSLFANAVLRAQHLHQLAADTYKEFERAYIPEGQRYSIQNAQAAFCFSETIPAPTGKEEAQQRTDMELLRFSLLLIQSWLGPVQFLSRIFTNSLMFGTSDRVYEKLKDLEEGIQALMQELEDGSPRIGQILKQTYDKFDANMRSDDALLKNYGLLSCFKKDLHKAETYLRVMKCRRFAESSCAF
STAT5 phosphorylation [3]: neither rat growth hormone nor human prolactin resulted in detectable STAT5 phosphorylation

B2: human prolactin: human prolactin (protein)
chain: LPICPGGAARCQVTLRDLFDRAVVLSHYIHNLSSEMFSEFDKRYTHGRGFITKAINSCHTSSLATPEDKEQAQQMNQKDFLSLIVSILRSWNEPLYHLVTEVRGMQEAPEAILSKAVEIEEQTKRLLEGMELIVSQVHPETKENEIYPVWSGLPSLQMADEESRLSAYYNLLHCLRRDSHKIDNYLKLLKCRIIHNNNC
STAT5 phosphorylation [3]: neither rat growth hormone nor human prolactin resulted in detectable STAT5 phosphorylation
